Laboratory results published in ChEMBL document CHEMBL4616706 (ACS Med Chem Lett, 2020).
≈ marks a conversion by molar mass, not a printed value. One block for each molecule: values may come before it.

Key:
Gamma-secretase [1] = experiment: Modulation of gamma secretase in human H4 cells overexpressing human APP695 harboring K595N/M596L Swedish double mutant assessed as reduction in total amyloid beta (1 to 42 residues) production measured after 24 hrs by AlphaLISA assay; format: cell-based
[2] = Modulation of mouse gamma secretase in N2A cells assessed as reduction in total amyloid beta (1 to 42 residues) production; format: cell-based
[3] = Clearance in human hepatocytes assessed per million cells; format: ADME, cell-based, Hepatocyte; conditions: read-out: CLH
P-gp (ABCB1) = P-gp (ABCB1) (Homo sapiens, UniProt P08183); experiment: Substrate activity at human P-gp assessed as efflux ratio; format: ADME; conditions: not told
P-gp (ABCB1), sequence (P08183 whole entry, the tested form may be a part): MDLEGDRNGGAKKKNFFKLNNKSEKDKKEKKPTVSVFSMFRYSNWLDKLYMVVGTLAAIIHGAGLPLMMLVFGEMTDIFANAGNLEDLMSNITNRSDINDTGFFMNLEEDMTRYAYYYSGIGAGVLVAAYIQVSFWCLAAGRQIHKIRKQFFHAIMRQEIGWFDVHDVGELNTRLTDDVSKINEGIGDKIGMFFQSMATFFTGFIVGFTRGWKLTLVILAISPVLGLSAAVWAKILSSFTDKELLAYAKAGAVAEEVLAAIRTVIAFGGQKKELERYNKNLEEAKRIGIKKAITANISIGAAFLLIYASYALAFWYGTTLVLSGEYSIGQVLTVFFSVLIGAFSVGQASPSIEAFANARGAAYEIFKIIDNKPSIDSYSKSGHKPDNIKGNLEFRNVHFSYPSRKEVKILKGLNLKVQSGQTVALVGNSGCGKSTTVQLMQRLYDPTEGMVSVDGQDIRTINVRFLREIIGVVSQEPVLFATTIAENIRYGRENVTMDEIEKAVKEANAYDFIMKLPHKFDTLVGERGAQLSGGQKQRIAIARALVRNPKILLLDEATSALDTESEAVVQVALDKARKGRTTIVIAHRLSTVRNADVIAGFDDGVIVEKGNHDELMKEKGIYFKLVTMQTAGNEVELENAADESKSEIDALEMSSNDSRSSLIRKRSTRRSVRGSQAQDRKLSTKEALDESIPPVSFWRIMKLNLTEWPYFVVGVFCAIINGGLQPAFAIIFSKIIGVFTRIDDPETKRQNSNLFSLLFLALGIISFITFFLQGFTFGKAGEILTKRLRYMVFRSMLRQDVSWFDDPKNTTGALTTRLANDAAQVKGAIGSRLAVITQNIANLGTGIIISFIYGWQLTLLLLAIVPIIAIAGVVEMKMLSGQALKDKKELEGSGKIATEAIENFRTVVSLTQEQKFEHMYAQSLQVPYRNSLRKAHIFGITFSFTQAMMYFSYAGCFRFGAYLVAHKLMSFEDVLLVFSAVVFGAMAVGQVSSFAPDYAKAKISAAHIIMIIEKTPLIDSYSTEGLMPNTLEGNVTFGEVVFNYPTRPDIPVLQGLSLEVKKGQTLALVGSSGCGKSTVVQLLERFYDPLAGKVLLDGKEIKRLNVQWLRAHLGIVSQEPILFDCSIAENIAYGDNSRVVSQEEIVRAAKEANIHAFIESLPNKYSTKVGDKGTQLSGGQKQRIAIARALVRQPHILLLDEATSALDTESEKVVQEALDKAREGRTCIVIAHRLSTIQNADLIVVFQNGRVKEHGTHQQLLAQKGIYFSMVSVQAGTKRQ

Gamma-secretase [4] = experiment: Modulation of gamma secretase in human H4 cells overexpressing human APP695 harboring K595N/M596L Swedish double mutant assessed as reduction in free amyloid beta (1 to 42 residues) production measured after 24 hrs by AlphaLISA assay; format: cell-based
Gamma-secretase [5] = experiment: Modulation of human gamma secretase expressed in HEK293 cells assessed as reduction in total amyloid beta (1 to 42 residues) production; format: cell-based
Gamma-secretase [6] = experiment: Modulation of human gamma secretase expressed in HEK293 cells assessed as reduction in free amyloid beta (1 to 42 residues) production; format: cell-based
[7] = Modulation of mouse gamma secretase in N2A cells assessed as reduction in free amyloid beta (1 to 42 residues) production; format: cell-based
[8] = Distribution coefficient, logD of compound; format: physicochemical; conditions: octanol/water
[9] = biological target: Voltage-gated inwardly rectifying potassium channel KCNH2 (Homo sapiens, UniProt Q12809); experiment: (§1) Inhibition of human ERG
Voltage-gated inwardly rectifying potassium channel KCNH2, sequence (Q12809 whole entry): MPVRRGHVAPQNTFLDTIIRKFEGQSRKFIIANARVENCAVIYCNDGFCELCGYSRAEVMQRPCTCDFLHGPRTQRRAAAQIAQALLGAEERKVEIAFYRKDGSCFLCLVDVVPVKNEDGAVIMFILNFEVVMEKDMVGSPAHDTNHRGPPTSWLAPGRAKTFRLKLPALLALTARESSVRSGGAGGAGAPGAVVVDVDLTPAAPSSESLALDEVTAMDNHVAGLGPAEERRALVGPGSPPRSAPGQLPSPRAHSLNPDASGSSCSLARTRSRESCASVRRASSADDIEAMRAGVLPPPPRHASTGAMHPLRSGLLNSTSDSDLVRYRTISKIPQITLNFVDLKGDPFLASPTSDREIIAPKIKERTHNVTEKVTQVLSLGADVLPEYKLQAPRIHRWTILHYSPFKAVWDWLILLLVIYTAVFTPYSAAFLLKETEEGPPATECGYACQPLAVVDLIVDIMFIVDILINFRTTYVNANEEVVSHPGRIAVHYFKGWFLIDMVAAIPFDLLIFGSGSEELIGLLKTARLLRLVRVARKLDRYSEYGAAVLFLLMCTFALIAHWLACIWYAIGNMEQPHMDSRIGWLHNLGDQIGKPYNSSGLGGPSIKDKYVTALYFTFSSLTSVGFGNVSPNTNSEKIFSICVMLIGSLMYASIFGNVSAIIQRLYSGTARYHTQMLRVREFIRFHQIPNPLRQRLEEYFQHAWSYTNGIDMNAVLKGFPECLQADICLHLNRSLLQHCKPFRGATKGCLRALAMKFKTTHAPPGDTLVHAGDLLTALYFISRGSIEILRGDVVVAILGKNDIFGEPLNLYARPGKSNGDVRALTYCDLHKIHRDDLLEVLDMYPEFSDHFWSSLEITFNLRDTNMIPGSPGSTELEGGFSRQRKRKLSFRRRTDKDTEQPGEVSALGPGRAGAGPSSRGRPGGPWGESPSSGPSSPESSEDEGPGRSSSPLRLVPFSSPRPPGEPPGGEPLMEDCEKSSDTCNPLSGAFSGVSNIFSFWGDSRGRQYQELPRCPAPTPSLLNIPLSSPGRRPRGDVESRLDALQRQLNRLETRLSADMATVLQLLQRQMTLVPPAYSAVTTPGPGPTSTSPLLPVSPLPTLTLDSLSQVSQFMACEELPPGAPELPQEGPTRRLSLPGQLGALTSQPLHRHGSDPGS

hERG (KCNH2) = hERG (KCNH2) (Homo sapiens, UniProt Q12809); experiment: as §1; conditions: human
hERG (KCNH2), sequence (Q12809 whole entry): as above

[10] = Clearance in mouse hepatocytes assessed per million cells; format: ADME, cell-based, Hepatocyte; conditions: read-out: CLH
[11] = Clearance in rat hepatocytes assessed per million cells; format: ADME, cell-based, Hepatocyte; conditions: read-out: CLH
P-gp = experiment: Substrate activity at mouse P-gp assessed as efflux ratio; format: ADME; conditions: not told
[12] = Unbound fraction in human plasma; format: ADME, cell-free
[13] = Unbound fraction in mouse plasma; format: ADME, cell-free
[14] = Unbound fraction in rat plasma; format: ADME, cell-free
[15] = Glutathione reactivity of compound; format: physicochemical
[16] = Genotoxicity in Salmonella typhimurium by Ames test; format: toxicity; conditions: salmonella enterica subsp. enterica serovar typhimurium
[17] = Clearance in C57BL/6J mouse at 1 mg/kg, iv administered as single dose; format: ADME, organism-based; conditions: in vivo
[18] = Terminal half life in C57BL/6J mouse at 1 mg/kg, iv administered as single dose; format: ADME, organism-based; conditions: in vivo, read-out: beta t1/2 (converted)
[19] = Volume of distribution at steady state in C57BL/6J mouse at 1 mg/kg, iv administered as single dose; format: ADME, organism-based; conditions: in vivo, read-out: Vdss
[20] = Oral bioavailability in C57BL/6J mouse at 3 mg/kg administered as single dose; format: ADME, organism-based; conditions: in vivo
Mus musculus = experiment: In vivo modulation of gamma secretase in APP Swedish double transgenic mouse assessed as reduction in free amyloid beta (1 to 42 residues) production measured after 4 hrs by AlphaLISA assay; format: functional, organism-based
[21] = Solubility of compound by LYSA assay; format: physicochemical
[22] = Clearance in Wistar rat at 1 mg/kg, iv administered as single dose; format: ADME, organism-based; conditions: in vivo
[23] = Terminal half life in Wistar rat at 1 mg/kg, iv administered as single dose; format: ADME, organism-based; conditions: in vivo, read-out: beta t1/2 (converted)
[24] = Volume of distribution at steady state in Wistar rat at 1 mg/kg, iv administered as single dose; format: ADME, organism-based; conditions: in vivo, read-out: Vdss
[25] = Oral bioavailability in Wistar rat at 3 mg/kg administered as single dose; format: ADME, organism-based; conditions: in vivo

SMILES: Cc1noc(N2C[C@H]3CC[C@@H](C2)[C@@H]3Nc2nc3n(n2)CCCCC3c2ccc(F)c(F)c2F)n1 (mixture of isomers)
IC50 (Gamma-secretase [1]): 44 nM

SMILES: Cc1cc(N2C[C@H]3CC[C@@H](C2)[C@@H]3Nc2nc3n(n2)CCCC[C@H]3c2ccc(F)c(F)c2F)ncn1
IC50 [2]: 2 nM | hepatocyte CLint [3]: 4.5 µL/min/1e6 cells | efflux ratio (P-gp (ABCB1)): 2.4 | IC50 (Gamma-secretase [4]): 4 nM | IC50 (Gamma-secretase [5]): 2 nM | IC50 (Gamma-secretase [6]): 4 nM | IC50 [7]: 4 nM | logD [8]: 3.8 | IC50 [9]: 1400 nM | IC20 (hERG (KCNH2)): 300 nM | hepatocyte CLint [10]: 1.4 µL/min/1e6 cells | hepatocyte CLint [11]: 43 µL/min/1e6 cells | efflux ratio (P-gp): 3.3 | fraction unbound [12]: 0.054 | fraction unbound [13]: 0.014 | fraction unbound [14]: 0.014 | Drug metabolism [15]: Not Active | Activity [16]: Non-Toxic | clearance [17]: 5 mL/min/kg | half-life [18]: 3.4 h | Vd [19]: 1.1 L/kg | bioavailability [20]: 53% | IC50 (Mus musculus): 2.5 nM

SMILES: Cc1cc(N2C[C@H]3CC[C@@H](C2)[C@@H]3Nc2nc3n(n2)CCCCC3c2ccc(F)c(F)c2F)cnn1 (mixture of isomers)
IC50 (Gamma-secretase [1]): 30 nM | solubility [21]: 188 µg/mL (≈ 389 µM) | hepatocyte CLint [3]: 2.1 µL/min/1e6 cells | efflux ratio (P-gp (ABCB1)): 20

SMILES: Cc1nnc(N2C[C@H]3CC[C@@H](C2)[C@@H]3Nc2nc3n(n2)CCCCC3c2ccc(F)c(F)c2F)o1 (mixture of isomers)
IC50 (Gamma-secretase [1]): 49 nM

SMILES: Cc1cc(N2C[C@H]3CC[C@@H](C2)[C@@H]3Nc2nc3n(n2)CCCCC3c2ccc(F)c(F)c2F)on1 (mixture of isomers)
IC50 (Gamma-secretase [1]): 39 nM

SMILES: Fc1ccc(C2CCn3nc(N[C@@H]4[C@@H]5CC[C@H]4CN(c4ccnc(C(F)(F)F)c4)C5)nc32)cc1F (some centres undefined)
IC50 (Gamma-secretase [1]): 88 nM

SMILES: COc1cc(N2C[C@H]3CC[C@@H](C2)[C@@H]3Nc2nc3n(n2)CCCCC3c2cccc(C(F)(F)F)c2)cnn1 (mixture of isomers)
IC50 (Gamma-secretase [1]): 40 nM

SMILES: Fc1ccc(C2CCCn3nc(N[C@@H]4[C@@H]5CC[C@H]4CN(c4cc(Cl)ncn4)C5)nc32)c(F)c1F (mixture of isomers)
IC50 (Gamma-secretase [1]): 30 nM

SMILES: COc1cc(N2C[C@H]3CC[C@@H](C2)[C@@H]3Nc2nc3n(n2)CCCCC3c2ccc(F)c(F)c2F)ncn1 (mixture of isomers)
IC50 (Gamma-secretase [1]): 29 nM | IC50 [9]: 550 nM | IC20 (hERG (KCNH2)): 200 nM

SMILES: Cc1cc(N2C[C@H]3CC[C@@H](C2)[C@@H]3Nc2nc3n(n2)CCCN3c2cc(F)cc(F)c2)ncn1
IC50 [2]: 3 nM | solubility [21]: 6 µg/mL (≈ 13.3 µM) | hepatocyte CLint [3]: 2.4 µL/min/1e6 cells | IC50 [7]: 5 nM | logD [8]: 3.5 | hepatocyte CLint [10]: 0.6 µL/min/1e6 cells | hepatocyte CLint [11]: 6.4 µL/min/1e6 cells | fraction unbound [12]: 0.01 | fraction unbound [13]: 0.006 | fraction unbound [14]: 0.014 | Drug metabolism [15]: Not Active | Activity [16]: Non-Toxic | clearance [22]: 3.5 mL/min/kg | half-life [23]: 4.6 h | Vd [24]: 1.1 L/kg | bioavailability [25]: 82% | IC50 (Mus musculus): 3 nM

SMILES: Cc1nnc(N2C[C@H]3CC[C@@H](C2)[C@@H]3Nc2nc3n(n2)CCCC3c2ccc(F)c(F)c2F)o1 (mixture of isomers)
IC50 (Gamma-secretase [1]): 237 nM

SMILES: Cc1cc(N2C[C@H]3CC[C@@H](C2)[C@@H]3Nc2nc3n(n2)CCCN3c2ccc(F)c(F)c2)ncn1
IC50 (Gamma-secretase [1]): 25 nM | solubility [21]: 161 µg/mL (≈ 356 µM) | hepatocyte CLint [3]: 2 µL/min/1e6 cells | efflux ratio (P-gp (ABCB1)): 3.2

SMILES: Cc1cc(N2C[C@H]3CC[C@@H](C2)[C@@H]3Nc2nc3n(n2)CCN3c2ccc(C(F)(F)F)cc2)ncn1
IC50 (Gamma-secretase [1]): 26 nM

SMILES: Cc1noc(N2C[C@H]3CC[C@@H](C2)[C@@H]3Nc2nc3n(n2)CCCN3c2ccc(F)c(F)c2)n1
IC50 (Gamma-secretase [1]): 32 nM | solubility [21]: 158 µg/mL (≈ 357 µM) | hepatocyte CLint [3]: 1.5 µL/min/1e6 cells

SMILES: FC(F)(F)c1cccc(C2CCCCn3nc(N[C@@H]4[C@@H]5CC[C@H]4CN(c4cnnc(Cl)c4)C5)nc32)c1 (mixture of isomers)
IC50 (Gamma-secretase [1]): 31 nM

SMILES: Fc1ccc(C2CCn3nc(N[C@@H]4[C@@H]5CC[C@H]4CN(c4ccnc(C(F)(F)F)c4)C5)nc32)c(F)c1F (mixture of isomers)
IC50 (Gamma-secretase [1]): 126 nM

SMILES: Cc1cc(N2C[C@H]3CC[C@@H](C2)[C@@H]3Nc2nc3n(n2)CCCCC3c2ccc(F)c(F)c2)ncn1 (mixture of isomers)
IC50 (Gamma-secretase [1]): 23 nM | hepatocyte CLint [3]: 6.5 µL/min/1e6 cells

SMILES: Fc1ccc(C2CCCCn3nc(N[C@@H]4[C@@H]5CC[C@H]4CN(c4ccnc(C(F)(F)F)c4)C5)nc32)c(F)c1F (mixture of isomers)
IC50 (Gamma-secretase [1]): 31 nM

SMILES: Fc1ccc(N2CCCCn3nc(N[C@@H]4[C@@H]5CC[C@H]4CN(c4ccnc(C(F)(F)F)c4)C5)nc32)cc1F
IC50 (Gamma-secretase [1]): 34 nM

SMILES: Fc1ccc(C2CCCn3nc(N[C@@H]4[C@@H]5CC[C@H]4CN(c4ccnc(C(F)(F)F)c4)C5)nc32)c(F)c1F (mixture of isomers)
IC50 (Gamma-secretase [1]): 44 nM

SMILES: Cc1cc(N2C[C@H]3CC[C@@H](C2)[C@@H]3Nc2nc3n(n2)CCCC3c2ccc(C(F)(F)F)cc2)ncn1 (mixture of isomers)
IC50 (Gamma-secretase [1]): 25 nM

SMILES: Cc1cc(N2C[C@H]3CC[C@@H](C2)[C@@H]3Nc2nc3n(n2)CCCN3c2ccc(F)c(F)c2)cnn1
IC50 (Gamma-secretase [1]): 23 nM | solubility [21]: 131 µg/mL (≈ 289 µM) | hepatocyte CLint [3]: 2.3 µL/min/1e6 cells | efflux ratio (P-gp (ABCB1)): 3.3

More lines, main results first:

IC50 (Gamma-secretase [1]): 14 nM | solubility [21]: < 0.3 µg/mL | hepatocyte CLint [3]: 2.6 µL/min/1e6 cells | efflux ratio (P-gp (ABCB1)): 1.5
SMILES: Fc1ccc(C2CCCCn3nc(N[C@@H]4[C@@H]5CC[C@H]4CN(c4cc(Cl)ncn4)C5)nc32)c(F)c1F (mixture of isomers)

IC50 (Gamma-secretase [1]): 19 nM
SMILES: Cc1cc(N2C[C@H]3CC[C@@H](C2)[C@@H]3Nc2nc3n(n2)CCCCN3c2ccc(C(F)(F)F)cc2)ncn1

IC50 (Gamma-secretase [1]): 14 nM | solubility [21]: 14 µg/mL (≈ 27.8 µM) | hepatocyte CLint [3]: 3.3 µL/min/1e6 cells | efflux ratio (P-gp (ABCB1)): 4.3
SMILES: Fc1ccc(C2CCCCn3nc(N[C@@H]4[C@@H]5CC[C@H]4CN(c4cnnc(Cl)c4)C5)nc32)c(F)c1F (mixture of isomers)

IC50 (Gamma-secretase [1]): 15 nM | solubility [21]: 0.7 µg/mL (≈ 1.45 µM) | hepatocyte CLint [3]: 3.1 µL/min/1e6 cells | efflux ratio (P-gp (ABCB1)): 2.1
SMILES: Cc1cc(N2C[C@H]3CC[C@@H](C2)[C@@H]3Nc2nc3n(n2)CCCCC3c2ccc(F)c(F)c2F)ncn1 (mixture of isomers)

IC50 (Gamma-secretase [1]): 16 nM | solubility [21]: 11 µg/mL (≈ 23.5 µM) | hepatocyte CLint [3]: 3.8 µL/min/1e6 cells | efflux ratio (P-gp (ABCB1)): 1
SMILES: COc1cc(N2C[C@H]3CC[C@@H](C2)[C@@H]3Nc2nc3n(n2)CCCN3c2ccc(F)c(F)c2)ccn1
IC50 [9]: > 2000 nM | IC20 (hERG (KCNH2)): > 1000 nM

IC50 (Gamma-secretase [1]): 19 nM | solubility [21]: 34 µg/mL (≈ 68.3 µM) | hepatocyte CLint [3]: 14 µL/min/1e6 cells | efflux ratio (P-gp (ABCB1)): 2.2
SMILES: Cc1cc(N2C[C@H]3CC[C@@H](C2)[C@@H]3Nc2nc3n(n2)CCCCC3c2cccc(C(F)(F)F)c2)ncn1 (mixture of isomers)

IC50 (Gamma-secretase [1]): 14 nM | solubility [21]: 3.2 µg/mL (≈ 6.42 µM) | hepatocyte CLint [3]: 6 µL/min/1e6 cells | efflux ratio (P-gp (ABCB1)): 1.2
SMILES: COc1cc(N2C[C@H]3CC[C@@H](C2)[C@@H]3Nc2nc3n(n2)CCCCC3c2ccc(F)c(F)c2F)ccn1 (mixture of isomers)

IC50 (Gamma-secretase [1]): 14 nM
SMILES: Cc1cc(N2C[C@H]3CC[C@@H](C2)[C@@H]3Nc2nc3n(n2)CCCCC3c2ccc(C(F)(F)F)cc2)ncn1 (mixture of isomers)

IC50 (Gamma-secretase [1]): 15 nM
SMILES: Fc1ccc(N2CCCn3nc(N[C@@H]4[C@@H]5CC[C@H]4CN(c4ccnc(C(F)(F)F)c4)C5)nc32)cc1F

IC50 (Gamma-secretase [1]): 11 nM
SMILES: Cc1cc(N2C[C@H]3CC[C@@H](C2)[C@@H]3Nc2nc3n(n2)CCCN3c2ccc(C(F)(F)F)cc2)ncn1
